According to patent US20240083944A1 (priority 2021, published 2024):
pIC50: −log10 of the molar value. Starred links: 1 amine or outer side, 2 acyl side, 3 side chain; linkers in the order of their positions; H or OH if unused. Positions of bridges follow the written chain, without caps; N, C: chain ends. Non-standard residues stand in square brackets, D forms with d. Chains are numbered I, II in the order given. X2 = O=C(CCOCCN(CCOCCC(=O)NCCOCCOCCOCCOCCOCCOCCOCCOCCOCCOCCn1cc(CCC(=O)[*:2])nn1)CCOCCC(=O)NCCOCCOCCOCCOCCOCCOCCOCCOCCOCCOCCn1cc(CCC(=O)[*:3])nn1)NCCOCCOCCOCCOCCOCCOCCOCCOCCOCCOCCn1cc(CCC(=O)[*:1])nn1; X1 = C(c1nc(C[*:2])nc(C[*:3])n1)[*:1]; tBuAla = CC(C)(C)C[C@H](N)C(=O)O; Agb = N=C(N)NCC[C@H](N)C(=O)O

Test system: SARS-CoV-2 pseudotyped HIV-1 virions, D614G

Substance: I: Ac-CPYVAG[Agb][dA]TCL[tBuAla]CK-NH2 / II: Ac-CPYVAG[Agb][dA]TCL[tBuAla]CK-NH2 / III: Ac-CPYVAG[Agb][dA]TCL[tBuAla]CK-NH2 (linker I:1-I:10-I:13, II:1-II:10-II:13, III:1-III:10-III:13 via X1; linker I:14-II:14-III:14 via X2) [BCY17021]
- pIC50: 9.30
